{"source": "patent US9968582B2", "about": "“Use of a benzoate containing composition in urea cycle disorders and neurodegenerative disorders” (Rush University Medical Center, priority 2014, dated 2018)", "key": {"[1]": {"test_system": "female PLP-TCR transgenic (Tg) mice", "assay": "Relapsing EAE in PLP-TCR transgenic mice, clinical symptoms", "format": "in vivo", "details": "FIG. 1B"}, "male C57/BL6 mice": {"test_system": "male C57/BL6 mice", "assay": "Chronic EAE (MOG35-55), clinical symptoms", "format": "in vivo", "details": "chronic model, FIG. 1C", "method": "C57BL/6 mice were immunized with 100 μg of MOG35-55 as described above. Mice also received two doses of pertussis toxin (150 ng/mouse) on 0 and 2 dpi.\nGTB was mixed in 0.5% methylcellulose (MC) and EAE mice were gavaged 100 μL GTB-mixed MC once daily using gavage needle. Therefore, control EAE mice received only MC as vehicle.\nWhile female SJL/J mice are used to induce RR-EAE, chronic form of EAE is modeled in male C57/BL6 mice upon immunization with MOG35-55. Therefore, the inventor examined the efficacy of GTB in suppressing the disease process of chronic EAE."}, "[2]": {"test_system": "blood-brain barrier and blood-spinal cord barrier", "assay": "Integrity of BBB and BSB, infrared dye (Alexa-680) entry into CNS of EAE mice", "format": "in vivo", "text": "BBB and BSB are membranic structures that act primarily to protect the brain and the spinal cord, respectively from chemicals in the blood, while still allowing some essential molecules to enter. It is known that during active MS and EAE, BBB and BSB break down in a section of the brain and spinal cord, respectively due to widespread inflammation thereby allowing different blood molecules and toxins enter into the CNS. Therefore, the inventor investigated if GTB treatment modulated the integrity of BBB and BSB. The inventor injected an infrared dye (Alexa-680) via tail-vein and 2 h after the injection, live mice were scanned in an Odyssey infra-red scanner. As evidenced from FIG. 3A (first lane), infra-red signals were not visible on areas over the brain and the spinal cord in control HBSS-injected mice. […] In FIG. 3C, the top row relates to the frontal cortex, the middle row relates to the midbrain, and the last row relates to the cerebellum. In FIG. 3D, the first column relates to the control, the second column relates to EAE, the third column relates to EAE+GTB, the fourth column relates to EAE+Vehicle, and the y-axis is density of infrared signal."}, "iNOS": {"test_system": "iNOS", "assay": "Expression of iNOS in spinal cord of EAE mice (RT-PCR)", "format": "in vivo", "details": "FIG. 4D-F", "method": "Total RNA was isolated from splenic T cells and spinal cord by using the RNeasy mini kit (Qiagen, Valencia, Calif.) and from spleen and cerebellum by using the Ultraspec-II RNA reagent (Biotecx laboratories, Inc, Houston, Tex.) following manufacturer's protocol. To remove any contaminating genomic DNA, total RNA was digested with DNase. Semi-quantitative RT-PCR was carried out using a RT-PCR kit from Clonetech (Mountain View, Calif.). Briefly, 1 μg of total RNA was reverse transcribed using oligo(dT)12-18 as primer and MMLV reverse transcriptase (Clontech) in a 20 μL reaction mixture. The resulting cDNA was appropriately-diluted, and diluted cDNA was amplified using Titanium Taq DNA polymerase and following primers. Amplified products were electrophoresed on a 1.8% agarose gels and visualized by ethidium bromide staining.\nThe relative expression of each gene with respect to GAPDH was measured after scanning the bands with a Fluor Chem 8800 Imaging System (Alpha Innotech, San Leandro, Calif.).\nReal-time PCR analysis was performed using the ABI-Prism7700 sequence detection system (Applied Biosystems, Foster City, Calif.). […] Data were processed by the ABI Sequence Detection System 1.6 software and analyzed by ANOVA. […]"}, "TGF-β": {"test_system": "TGF-β", "assay": "TGF-β ELISA in serum of EAE mice", "format": "in vivo", "details": "GTB from 8 dpt, sacrificed 16 dpt; FIG. 6", "text": "Production of TGF-β in culture supernatant was monitored by ELISA using assay kit from eBioscience (San Diego, Calif.).\nBecause TGF-β is known to protect mice from EAE, the inventor examined the level of TGF-β in serum of GTB-treated and untreated EAE mice by ELISA. EAE mice receiving GTB or vehicle from 8 dpt were sacrificed on 16 dpt followed by analysis of TGF-β in serum. The inventor observed marked decrease in TGF-β in the serum of EAE mice as compared to control mice (FIG. 6)."}, "[3]": {"test_system": "dopamine (DA) in the striata", "assay": "MPTP mouse model of PD, HPLC of striatal dopamine", "format": "in vivo, mice", "details": "FIG. 10", "method": "Six- to eight-week old C57BL/6 mice were purchased from Harlan (Indianapolis, Ind.). For acute MPTP intoxication, mice received four intraperitoneal (i.p.) injections of MPTP-HCl (18 mg/kg of free base; Sigma Chemical Co., St. Louis, Mo.) in saline at 2-h intervals. Control animals received only saline.\nGTB was mixed in 0.5% methylcellulose (MC) and from 3 h after the last injection of MPTP, mice were gavaged 100 μL GTB-mixed MC once daily using gavage needle. Therefore, control MPTP mice received only MC as vehicle.\nStriatal level of dopamine was quantified in Complete Stand-Alone HPLC-ECD System EiCOMHTEC-500 (JM Science Inc., Grand Island, N.Y.). Briefly, mice were sacrificed by cervical dislocation after 7 days of MPTP intoxication and their striata were collected and immediately frozen in dry ice and stored at −80° C. until analysis. On the day of the analysis, tissues were sonicated in 0.2M perchloric acid containing isoproterenol and resulting homogenates were centrifuged at 20,000×g for 15 min at 4 C. After pH adjustment and filtration, 10 μl of supernatant was injected onto an Eicompak SC-3ODS column (Complete Stand-Alone HPLC-ECD System EiCOMHTEC-500 from JM Science Inc., Grand Island, N.Y.) and analyzed following the manufacturer's protocol.\nNext, to determine whether GTB protects against biochemical deficits caused by MPTP, the inventor quantified levels of dopamine (DA) in the striata 7 days after the MPTP treatment. As evident from FIG. 10, MPTP intoxication led to about 75% decrease in striatal DA compared to striata of saline-injected control mice."}}, "data": [{"smiles": "O=C(OCC(COC(=O)c1ccccc1)OC(=O)c1ccccc1)c1ccccc1", "note": "[GTB, glyceryl tribenzoate]", "values": [{"measurement": "dose of maximum inhibition of EAE", "setting": "[1]; GTB from 8 dpi", "result": 50, "unit": "mg/kg body wt/d"}, {"measurement": "clinical symptoms (mean clinical score)", "setting": "[1]; different doses of GTB from 8 dpi, 10 μg/mouse PLP139-151", "result": "inhibitory effect of GTB on the clinical symptoms was clearly observed"}, {"measurement": "clinical symptoms of EAE", "setting": "male C57/BL6 mice", "result": "strongly inhibited the clinical symptoms"}, {"measurement": "entry of infra-red dye into the CNS, live mice", "setting": "[2]; scan 2 h after tail-vein injection of Alexa-680, FIG. 3A", "result": "strongly inhibited the entry of infra-red dye into the CNS"}, {"measurement": "entry of infra-red dye into spinal cord and parts of the brain, dissected tissue", "setting": "[2]; spinal cord, frontal cortex, midbrain, cerebellum, FIG. 3B-D", "result": "markedly attenuated the entry of infra-red dye"}, {"measurement": "expression of iNOS in the spinal cord", "setting": "iNOS", "result": "dramatically reduced the expression"}, {"measurement": "TGF-β in serum", "setting": "TGF-β", "result": "protected TGF-β"}, {"measurement": "decrease in striatal dopamine", "setting": "[3]; GTB 50 mg/kg body wt/d in MPTP-intoxicated mice, MPTP alone about 75% decrease", "result": 25, "unit": "%"}, {"measurement": "dopamine in the striatum", "setting": "[3]; GTB in MPTP-intoxicated mice, 7 days after MPTP", "result": "dose-dependently protected dopamine"}]}]}
